Results as given in patent US20050244936A1, “Hydantoin-racemase” (DEGUSSA AG, priority 1999, published 2005).

Assays:
HyuA = experiment: Substrate specificity of HyuA: racemization of 5-substituted hydantoins by ORD polarimetry; format: biochemical, Arthrobacter aurescens DSM 3747; settings: substrate conc. 0.9 mM; 100% racemase activity corresponds to 313 μ/mg by standard assay
Method: Racemization of the 5-substituted hydantoins BH, IMH and MTEH by HyuA was examined (Tab. 2).
Enzyme assays. Racemization of L-BH was measured by ORD-polarimerty (Model 341, Perkin Elmer Bodenseewerk, Überlingen, Germany) at a wavelength of 295 nm in the standard assay for racemase enzyme activity. 3 MM L-BH was dissolved in 0.1 M Tris, pH 3 at 45° C. in an ultrasonic waterbath, cooled to room temperature and the pH adjusted to pH 8.5 with 3 M NaOH. To 1 ml substrate solution 0.1 ml enzyme, diluted in 0.1 M Tris, pH 8.5, was added and the change in optical rotation determined at 37° C. by polarimetry (Teves et al., Fresenius' J. Anal. Chem. 1999, 363, 738-743). The racemization of MTEH and IMH by. HyuA was determined at substrate concentrations of 0.9 mM and recorded by ORD at 253 nm and 334 nm. The specific activities were calculated from initial reaction rates which were determined according to Teves et al. (1999). For determination of enzyme activity by HPLC, 1 mM L-IMH was dissolved as described above. The mixture containing 900 μl enzyme solution was incubated 5 min at 37° C. The reaction was stopped by addition of 400 μl 14% trichloroacetic acid and centrifugation in an Eppendorf centrifuge at full speed. 100 μl of the sample were diluted with 0.9 ml 0.1 M TrisHCl, pH 8.5, and D-IMH and L-IMH in the supernatant were separated by HPLC (Thermoseparation Products, Darmstadt, Germany) by injection of 20 μl sample into a Chiralpak WH-column (0.46×25 cm; Daicel Chemicals Industris LTD, Griesheim, Germany). The column was equilibrated with 0.25 mM CuSO4, pH 5.5. The flow rate was 1 ml/min at 50° C. and IMH detected at 254 nm. The chemical racemization of the substrate was taken into account. Racemization of […] substrate per minute was defined as one unit enzyme.

racemase HyuA = experiment: Initial velocities at different concentrations of L-MTEH (kinetic plot); format: biochemical, Arthrobacter aurescens DSM 3747; settings: FIG. 6
Method: The KM values of IMH and BH could not be determined due to the limited solubility of the substrates. Instead the initial velocities at different concentrations of L-MTEH were measured. […] Even at low substrate concentrations (>5 mM) inhibition is observed.
Enzyme assays. Racemization of L-BH was measured by ORD-polarimerty (Model 341, Perkin Elmer Bodenseewerk, Überlingen, Germany) at a wavelength of 295 nm in the standard assay for racemase enzyme activity. 3 MM L-BH was dissolved in 0.1 M Tris, pH 3 at 45° C. in an ultrasonic waterbath, cooled to room temperature and the pH adjusted to pH 8.5 with 3 M NaOH. To 1 ml substrate solution 0.1 ml enzyme, diluted in 0.1 M Tris, pH 8.5, was added and the change in optical rotation determined at 37° C. by polarimetry (Teves et al., Fresenius' J. Anal. Chem. 1999, 363, 738-743). The racemization of MTEH and IMH by. HyuA was determined at substrate concentrations of 0.9 mM and recorded by ORD at 253 nm and 334 nm. The specific activities were calculated from initial reaction rates which were determined according to Teves et al. (1999). For determination of enzyme activity by HPLC, 1 mM L-IMH was dissolved as described above. The mixture containing 900 μl enzyme solution was incubated 5 min at 37° C. […] The flow rate was 1 ml/min at 50° C. and IMH detected at 254 nm. […]

[1] = room temperature, pH 8.5, 20 hour; cited from earlier work

With `CSCCC1NC(=O)NC1=O` [L-MTEH] the “Relative Activity” value (HyuA) was 7% and the “substrate concentration at which inhibition of the racemase is observed” value (racemase HyuA) was over 5 mM.

With `O=C1NC(=O)[C@@H](Cc2c[nH]c3ccccc23)N1` [D-IMH] the “Relative Activity” value (HyuA) was 12%.

For `O=C1NC(=O)[C@H](Cc2c[nH]c3ccccc23)N1` [L-IMH], the “Relative Activity” value (HyuA) is listed as 13% and the “fraction racemized to D-IMH (chemical racemization)” value [1] is listed as “about 10%”.

In the case of `O=C1NC(=O)[C@@H](Cc2ccccc2)N1` [D-BH, D-Benzylhydantoin], the “Relative Activity” value (HyuA) is reported as 95%.

In the case of `CSCCC1NC(=O)NC1=O` [D-MTEH], the “Relative Activity” value (HyuA) is reported as 8%.
